Results taken from patent publication US7745589B1, “Antibodies and unnatural substrates of prenylation enzymes for use in detecting and isolating prenylated proteins” (University of Kentucky Research Foundation, priority 2005, dated 2010).

What was measured:
[1] = target: GGTaseI (Homo sapiens, UniProt P49354+P53609); test: GGTaseI continuous spectrofluorometric assay with dansylated-GCaaX peptides; type: biochemical; details: for Substrate for GGTaseI with CVIL peptide: dansylated-GCVIL peptide; for Substrate for GGTaseI with CVIM peptide: dansylated-GCVIM peptide; for Substrate for GGTaseI: peptide not specified
Method: The kinetic constants Km^peptide and kcat with GGPP, and the analogs with each peptide are determined in triplicate measurements using a continuous spectrofluorometric assay adapted for a 96-well plate. The following assay components are assembled in individual wells of a 96-well plate and incubated at 30° C. for 20 minutes: 180 μL of assay butler (52 mM Tris-HCl, 12 mM MgCl2, 12 μM ZnCl2 pH 7.4), 40 μL of detergent (0.125% n-dodecyl-β-D-maltoside in assay buffer), 40 μL of reducing agent (50 mM DTT in assay buffer) 20 μL of GGPP or analog (200 μM in 25 mM NH4HCO3) and 20 μL of N-dansyl-GCaaX peptide (variable concentration). Fluorescence is detected using a time based scan at 30° C. for 120 minutes. The velocity of each reaction is determined by converting the rate of increase in fluorescence intensity units (FLU/s) to μM/s with equation 1. vi=(R·P)/(FMAX−FMIN) Equation 1
Where vi is the velocity of the reaction in μM/s. R is the rate of the reaction in FLU/s. P is equal to the concentration of modified product in μM (see below). FMAX is the fluorescence intensity of fully modified product. FMIN is the fluorescence of a reaction mixture that contained 20 μL of assay buffer in the place of GGTaseI. Complete modification of peptides is assumed when fluorescence stabilized for more than 10 minutes and is confirmed by RP-HPLC analysis of the reaction mixture.
Final analysis peptide concentrations are chosen based on preliminary determination of the Km^peptide with 0.5, 1, 5 and 10 μM dansyl-GCaaX concentrations (see below). The final analysis used 8 peptide concentrations which are: ⅙, ⅕, ¼, ½, ¾, 1, 2, and 3 times the estimated Km^peptide. The reaction is then initiated by the addition of 20 μL of GGTaseI (final 10 nM). Fluorescence enhancement is determined as described above.
Complete modification of peptides is assumed when fluorescence stabilized for more than 10 minutes and is confirmed by RP-HPLC analysis of the reaction mixture. […] Alternatively the extent of input peptide modified is determined by RP-HPLC analysis of the dansyl moiety peak absorbance corresponding to the unmodified and modified peptides. The percent of modified peptide relative to the total input peptide is used to calculate the concentration of product in the mixture.
The velocities of the reactions are plotted against the concentration of peptide and are fit to the Michaelis-Menten equation (Equation 2) to give the apparent kcat (appkcat) and Km^peptide (appKmpeptide) values. Where et is the total enzyme concentration and [Pep] is the total input peptide. The kcat/Km^peptide value is derived from a Lineweaver-Burke plot of the same data points. vi/et=(appkcat*[Pep])/(appKm^peptide+[Pep]) Equation 2

[2] = system: GGTaseI; test: GGTaseI protein substrate modification of H-Ras; type: biochemical; details: relatively large amount of GGTaseI, Western blot FIG. 17A
[3] = system: anti-AG antibody; test: Western analysis of H-Ras modified by FTase with aniline analogs, probed with Anti-AG; type: binding, rabbits; details: H-Ras reacted with analog by FTase, FIG. 11A
Method: (§1) Cells are harvested by scraping into 300 μl phosphate buffered saline containing protease inhibitor cocktail set 1 (calbiochem), followed by sonication on ice. Protein concentration is determined using a Bradford reagent kit (Pierce). The proteins from the FTase reaction mixtures or cell lysates are then separated using 12% SDS-polyacrylamide gels followed by transfer to nitrocellulose membranes. The membranes are incubated in blocking buffer PCT (see ELISA) for one hour at room temperature, after which the following steps are used: incubation with Anti-AG 1:1000 to 1:10,000 in PCT for one hour; 3×15 minute washes with vigorous shaking in PT buffer (see ELISA); incubation at room temperature one hour with goat anti-rabbit horseradish peroxidase-conjugated secondary antibody (Zymed) at a dilution of 1:20,000 in PCT buffer; and four 15 minute washes with PT buffer. The membranes are then subjected to enhanced chemiluminescence detection by incubation in 20 mL of detection buffer (Pierce Super Signal) for one minute.

[4] = system: H460 (lung cancer cell line) and MCF7 (breast cancer cell line) cells; test: Cell labeling with AFOH; type: cell-based; details: 30 μM AFOH overnight, FIG. 17B
Method: Plates are coated with poly-L-Lysine and seeded with in Dulbecco's modified Eagle's medium with 5% fetal bovine serum. The cells are then treated with DMSO as a vehicle, or 30 μM AFOH is added and incubated at 37° C. overnight. Medium is then removed and cells are extracted into 500 μL of RIPA buffer containing Protease Inhibitor cocktail I (calbiochem). The supernatant is removed and used for western blotting.
Protein concentration is determined using a Bradford reagent kit (Pierce) with 1:100 dilutions of the cell lysates. The proteins from the GGTaseI reaction mixtures or cell lysates are then separated using 12% SDS-polyacrylamide gels followed by transfer to nitrocellulose membranes. The membranes are incubated in blocking buffer PBS Casein and Tween buffer for one hour at room temperature, after which the following sequential steps are used: incubation with anti-AG or anti-NAG to 1:10,000 in PCT for one hour; 3×15 minute washes with vigorous shaking in PBS Tween buffer; incubation at room temperature one hour with goat anti-rabbit horseradish peroxidase-conjugated secondary antibody (Zymed) at a dilution of 1:20,000 in PCT buffer; and four 15 minute washes with PT buffer. The membranes are then subjected to enhanced chemiluminescene detection by incubation in 20 mL of detection buffer (Pierce Super Signal) for one minute.

[5] = system: HEK-293 cells; test: AGOH labeling and FTI inhibition of label in HEK-293 cells; type: cell-based, human
Method: Plates are coated with poly-L-Lysine and seeded with HEK-cells in Dulbecco's modified Eagle's medium with 5% fetal bovine serum. Cells are incubated in medium containing 30 μM lovostatin and 10 μM GGOH for 24 hrs. The media is poured off then replenished with media without lovostatin and GGOH and are treated with 3 μM FTI-277 (calbiochem), 20 μM GGTI-2147 (calbiochem) or no inhibitor and incubated at 37° C. for 1 hour. DMSO as a vehicle, or 100 μM AGOH is then added and incubated at 37° C. for two hours. Medium is then removed and cells are extracted into 300 μL PBS containing Protease Inhibitor cocktail set 1 (Calbiochem). The samples are sonicated and centrifuged for 5 minutes. The supernatant is removed and used for western blotting.
Cells are harvested by scraping into 300 μl phosphate buffered saline containing protease inhibitor cocktail set 1 (calbiochem), followed by sonication on ice. Protein concentration is determined using a Bradford reagent kit (Pierce). The proteins from the FTase reaction mixtures or cell lysates are then separated using 12% SDS-polyacrylamide gels followed by transfer to nitrocellulose membranes. […]

[6] = system: anti-NAG antibodies; test: Western analysis of H-Ras modified by FTase with aniline analogs, probed with Anti-NAG; type: binding, rabbits; details: H-Ras reacted with analog by FTase, FIG. 11B
[7] = target: T1, FTase (Homo sapiens, UniProt P49354+P49356); test: FTase catalyzed in vitro modification of RDJ2 and H-Ras; type: biochemical; details: bacterially expressed proteins, intact Ca1a2X motifs
Method: 2 μg of recombinant bacterially expressed RDJ2 is incubated with 20 μM AGPP or FPP and 5 μg FTase in 50 μL of TrisHCl buffer (pH=7.4). […] The reactions are incubated for 30 min at 37° C., boiled with SDS and PAGE performed using the protein concentrations indicated on the blots.

[8] = system: human embryonic kidney (HEK-293) cells; test: Acute cytoxicity of anilinogeraniol in HEK-293 cells; type: cell-based; details: up to 100 μM, three days, relative to controls
Description: Farnesol, geranylgeraniol and a number of farnesol analogues become incorporated into cellular proteins when added to the culture media of growing cells. See e.g., Crick, et al. (1995) Biochem Biophys Res Commun 211, 590-9; Crick, et al. (1997) Biochem Biophys Res Commun 237, 483-7. These compounds are thought to traverse the plasma membrane and act as a substrate for sequential kinase reactions to give FPP, GGPP or the diphosphate analogue which can be then be utilized by FTase or GGTaseI to appropriately modify cellular proteins. Thai, et al. (1999) Proc Natl Acad Sci U S A 96, 13080-5. The kinases involved in the phosphorylation reactions have been characterized in plants, but not in mammalian cells. […] See Chehade, et al. (2000) J. Org. Chem. 65, […]. It is thought that nilinogeraniol might also cross the plasma membrane of cells, be converted to the diphosphate and become incorporated into proteins by FTase. However, it is also possible that anilinogeraniol might be toxic to mammalian cells. Accordingly, the acute cytoxicity of anilinogeraniol is examined by incubating human embryonic kidney (HEK-293) cells with up to 100 μM anilinogeraniol for three days.

[9] = system: HEK-cells; test: AGOH incorporation into unblocked cells; type: cell-based, human; details: 30 μM AGOH, no lovastatin blockade
Method: Plates are coated with poly-L-Lysine and seeded with HEK-cells in Dulbecco's modified Eagle's medium with 5% fetal bovine serum. The cells ware then treated with DMSO as a vehicle, or 30 μM AGOH 5a is then added and incubated at 37° C. for the indicated time points. Medium is then removed and cells are extracted into 300 μL PBS containing Protease Inhibitor cocktail set 1 (Calbiochem). The samples are sonicated and centrifuged for 5 minutes. The supernatant is removed and used for western blotting.
as §1, with “The membranes are then subjected to enhanced chemiluminescence detection by incubation in 20 mL of detection buffer (Pierce Super Signal) for one minute.” left out

[10] = target: T1, FTase; details: in vitro; cited from earlier work

In the case of `CC(=CCCC(C)=CCOP(=O)(O)OP(=O)(O)O)CCC=C(C)CNc1ccc([N+](=O)[O-])cc1` [NAFPP, pNO2-anilinofarnesyl diphosphate], the “Substrate for GGTaseI with CVIL peptide” value [1] is reported as “are substrates when CVIL is the target”, the “Substrate for GGTaseI with CVIM peptide” value [1] is reported as “none of the AGPP analogs or NAFPP are substrates” and the “Substrate for GGTaseI” value [1] is reported as “both substrates”. The “Incorporation of analog into H-Ras in vitro” value [2] was “incorporated into the protein”.

For “ortho-fluoro-anilinogeranyl diphosphate [oF-AGPP]”, the “Recognition of analog-modified H-Ras by anti-AG antibody” value [3] was “able to cross-react”.

For `CC(=CCO)CCC=C(C)CCC=C(C)CNc1ccccc1` [AFOH, Anilinofarnesiol], the “AFOH incorporation into cellular proteins” value [4] was “does appear to be incorporated into proteins”.

With `COC(=O)[C@H](CCSC)NC(=O)c1ccc(NC[C@@H](N)CS)cc1-c1ccccc1` [FTI-277, reference compound] the “Effect of inhibitor on anilinogeranyl modification of cellular proteins” value ([5]; cells incubated with AGOH, 3 μM FTI-277 or 20 μM GGTI-2147) was “no anilinogeranyl modified proteins are detected”.

For “meta-methyl-anilinogeranyl diphosphate [mMe-AGPP]”, the “Recognition of analog-modified H-Ras by anti-AG antibody” value [3] was “able to cross-react”.

For `CC(C)=CCC/C(C)=C/CC/C(C)=C/CC/C(C)=C/COP(=O)(O)OP(=O)(O)O` [GGPP, geranylgeranyl diphosphate, reference compound], the “Substrate for GGTaseI with CVIL peptide” value [1] was “confirmed to be a substrate” and the “Substrate for GGTaseI with CVIM peptide” value [1] was “confirmed to be a substrate”.

For anilinofarnesyl diphosphate [AFPP], the “Substrate for GGTaseI” value [1] was “both substrates” and the “Incorporation of analog into H-Ras in vitro” value [2] was “incorporated into the protein”.

For “para-methyl-anilinogeranyl diphosphate [pMe-AGPP]”, the “Recognition of analog-modified H-Ras by anti-AG antibody” value [3] was “able to cross-react”.

With “para-bromo-anilinogeranyl diphosphate [pBr-AGPP]” the “Recognition of analog-modified H-Ras by anti-AG antibody” value [3] was “able to cross-react” and the “Recognition of analog-modified H-Ras by anti-NAG antibodies” value [6] was “recognized”.

In the case of “para-cyano-anilinogeranyl diphosphate [pCN-AGPP]”, the “Recognition of analog-modified H-Ras by anti-NAG antibodies” value [6] is reported as “recognized”.

For “meta-cyano-anilinogeranyl diphosphate [mCN-AGPP]”, the “Recognition of analog-modified H-Ras by anti-AG antibody” value [3] was “able to cross-react” and the “Recognition of analog-modified H-Ras by anti-NAG antibodies” value [6] was “recognized”.

In the case of `C/C(=C\COP(=O)(O)OP(=O)(O)O)CC/C=C(\C)CNc1ccc([N+](=O)[O-])cc1` [NAGPP, para-nitro-anilinogeranyl diphosphate], the “FTase catalyzed in vitro modification of RDJ2 and Q61L H-Ras” value [7] is reported as “provided lipid thioether-linked proteins”.

For `C/C(=C\CO)CC/C=C(\C)CNc1ccccc1` [AGOH, Anilinogeranyl alcohol], the Cell growth [8] was “no decrease in cell growth”, the Morphological changes [8] was “no morphological changes” and the “Anilinogeranyl modified proteins detected with Anti-AG in cell extracts” value ([5]; cells blocked with lovostatin and treated with GGOH, 100 μM AGOH, FIG. 12) was “numerous anilinogeranyl modified proteins”. The “Competition with endogenous pools of FPP” value [9] was “competitive with the endogenous pools of FPP” and the “Onset of anilinogeranyl incorporation into proteins” value ([9]; FIG. 14) was “within two hours”.

For `C/C(=C\COP(=O)(O)OP(=O)(O)O)CC/C=C(\C)CNc1ccccc1` [AGPP, anilinogeranyl diphosphate], the “FTase catalyzed in vitro modification of RDJ2 and Q61L H-Ras” value [7] is listed as “provided lipid thioether-linked proteins” and the “Transferable by FTase to a CVLS substrate” value [10] is listed as “transferable”.

For `CC(=CCC/C(C)=C/COP(=O)(O)OP(=O)(O)O)CNc1ccc(F)cc1` [pF-AGPP, para-fluoro-anilinogeraniol diphosphate], the “Recognition of analog-modified H-Ras by anti-AG antibody” value [3] was “able to cross-react”.

In the case of “meta-fluoro-anilinogeranyl diphosphate [mF-AGPP]”, the “Recognition of analog-modified H-Ras by anti-AG antibody” value [3] is reported as “able to cross-react”.

For “meta-bromo-anilinogeranyl diphosphate [mBr-AGPP]”, the “Recognition of analog-modified H-Ras by anti-AG antibody” value [3] was “able to cross-react”.
